The record followed here is US20260015341A1, “PI3K INHIBITOR, PREPARATION METHOD THEREFOR, AND USE THEREOF” (HINOVA PHARMACEUTICALS INC., priority 2022, published 2026).

One data set can be described thus: Pharmacokinetics in rats. Conditions: rat; for AUC / half-life / clearance / Vd: male, SD, plasma; for Vd: read-out: VSS. Format: in vivo, SD rats. The method, then: Experimental Example 4: The Pharmacokinetics of the Compound According to the Present Invention in Rats
(§1) 9 healthy adult male SD rats (three for each administration route of each compound) were fasted overnight (>12 h) before gavage, with free access to water; 4 hours after administration, rats could take food, and were administered via tail vein injection and gastric lavage, respectively. At different time points, intravenous blood sample was collected and anti-coagulated, wherein the anticoagulant was EDTA-K2 (the sample was placed in an ice bath after blood collection). The plasma was separated by centrifugation at 4° C. and 6000 g for 5 min, and stored at −70° C. for testing. The plasma concentration of compounds was determined by LC-MS/MS method.
(§2) The plasma concentration of compound at all time points was used to calculate the main pharmacokinetic parameters with Winnolin 8.3 non-compartmental model.
(§3) The area under the concentration-time curve AUCall value: calculated using the trapezoidal method; AUCinf=AUCall+Ct/ke, Ct is the plasma concentration at the last measurable time point, and ke is the elimination rate constant;
The elimination half life t1/2=0.693/ke;
(§4) The clearance rate CL=D/AUCinf (D is the administration dosage);
The volume of distribution at steady state Vss=CL×MRT, The mean retention time MRT=AUMC/AUC;

The next data set has as its system MCF-10A cells. The experiment in a line: Inhibitory effects on the proliferation of MCF-10A cells (CCK8). Format: cell-based. As to conditions: Homo sapiens, 144 h, 6 days. The method, then:
Experimental Example 2: Experiment of Inhibitory Effects on the Proliferation of MCF-10A Cells
MCF-10A cells (Cobioer Bio. #CBP60419MCF) were diluted with complete medium (Cobioer Bio. #CBP60419), seeded in 96-well plate (Corning #3599) at 500 cells/well, and then cultured for 24 h. Then, gradiently diluted compounds were added (starting at a final concentration of 10 μM, 3-fold dilution, 9 dose concentrations), and the final volume was adjusted to 100 μL/well. The plate was incubated at 37° C. under 5% CO2 for 6 days. After the cultivation was completed, CCK8 reagent (Signalway Antibody Bio. #CP002) was added at 10 μL/well, and then the plate was further incubated at 37° C. under 5% CO2 for 2-3 hours. The OD450 nm value was obtained by a microplate reader.
The results are shown in the MCF-OA IC50 column in Table 2.

For a further data set, the system named is T47D cells. As to the kind of experiment: Inhibitory effects on the proliferation of T47D cells (CellTiter-Glo). Format: cell-based. As to conditions: Homo sapiens, 168 h, 7 days. The method, then:
Experimental Example 3: Experiment of Inhibitory Effects on the Proliferation of T47D Cells
T47D cells (ATCC. #HTB-133) were diluted with RPMI 1640 (Gibco #22400-089) containing 10% FBS (Hyclone #SH30084.03), seeded in 96-well plate (Biosharp #BS-MP-96W) at 1000 cells/well, and then cultured for 24 h. Then, gradiently diluted compounds were added (starting at a final concentration of 10 μM, 3-fold dilution, 9 dose concentrations), and the final volume was adjusted to 150 μL/well. The plate was incubated at 37° C. under […] for 7 days. After the cultivation was completed, CellTiter-Glo reagent (Promega #G7573) was added at 75 μL/well, and then the plate was further incubated at 25° C. for 10 min. After that, the chemiluminescence value was read using an instrument.
The results are shown in the T47D IC50 column in Table 2.
Background: Cellular ATP, detected with luciferase, serves as a proxy for viable cell number.

The nature of data set [1]: Pharmacokinetics in beagle dogs. Format: in vivo. Conditions: beagle dog. The method, then: Experimental Example 5: The Pharmacokinetics of the Compound According to the Present Invention in Beagle Dogs
as §1, with “beagle dogs” for “SD rats”, “forelimb venous” for “intravenous”, “3200” for “4° C. and 6000”, “10” for “5”
as §2, §3, §4
The volume of distribution at steady state Vss=CL×MRT. The mean retention time MRT=AUMC/AUC;

Data set [2] has as its target PI3Kα[WT]/[E542K]/[E545K]/[H1047R]/PI3Kβ/γ/δ. As to the kind of experiment: PI3K enzyme activity assay (ADP-Glo). Format: biochemical. Conditions: PI3K kinase reaction, isoform not given. The method, then: Experimental Example 1: PI3Kα[WT]/[E542K]/[E545K]/[H1047R]/PI3Kβ/γ/δ Enzyme Activity Assay
PI3Kα[WT], PI3Kα[E542K], PI3Kα[E545K], PI3Kα[H1047R], PI3Kβ, PI3Kγ and PI3Kδ kinase reaction was performed in 384-well plate (PerkinElmer, #6008280), with a reaction system of 4 μL. PI3Kα[WT] enzyme solution (Promega, #V1721) or PI3Kα[E542K] enzyme solution (CarnaBio, #11-413-20N) or PI3Kα[E545K] enzyme solution (CarnaBio, #11-414-20N) or PI3Kα[H1047R] enzyme solution (Promega, #V1741) or PI3Kβ enzyme solution (Promega, #V1751) or PI3Kγ enzyme solution (ThermoFisher, #PV4786) or PI3Kδ enzyme solution (ThermoFisher, #PV6451) were added to 384-well plate, and then gradiently diluted compounds were added (starting at a final concentration of 10 μM, 3-fold dilution, 10 doses), followed by adding PIP2: 3PS (Promega, #V1701) and ATP solution (Promega, #V915B) to the plate. After incubation at 25° C. for 1 h, ADP-Glo reagent buffer (Promega, #V9102) was added to each well. The plate was sealed and incubated at 25° C. for 40 min, and then 10 μL of ADP-Glo detection buffer (Promega, #V9102) was added to each well. After incubating at 25° C. for 40 min, the chemiluminescence value was read using an instrument.
The experimental results are shown in the ADP Glo IC50 column in Table 2.

Where [3] appears, read: iv (tail vein injection), 1 mg/kg.
Setting [4] is: male, plasma, po, ig (intragastric), 3 mg/kg.
Where [5] appears, read: male, plasma, po, ig (intragastric), 10 mg/kg.

One may read the AUC as the area under the concentration-time curve, a measure of exposure. A word on the half-life: it is how long it takes for the measured level to halve. A higher half-life goes with slow decline. For orientation: clearance means the volume of plasma or blood freed of the substance per unit of time. The term IC50 denotes the point on the concentration scale where inhibition reaches its midpoint. As to `Cc1cc([C@@H](C)Nc2ccc(Cl)nc2C(=O)O)c2nc(-c3ccccc3)n(C)c(=O)c2c1` [Compound 115], in “Pharmacokinetics in rats” (po, ig (intragastric), 3 mg/kg), the AUC worked out at 2360 ng·h/mL and the half-life was 3.83 h. Further, in the data set “Pharmacokinetics in rats” (setting [3]), the AUC came to 978 ng·h/mL, the clearance was found to be 17.5 mL/min/kg, the half-life was 3.79 h and the Vd worked out at 2.14 L/kg. In the data set “Pharmacokinetics in rats” (ig (intragastric), 3 mg/kg), this molecule had an F of 80.3%. In the data set on MCF-10A cells, this molecule showed an IC50 of over 5 µM. For the same molecule, in the data set with T47D cells, the IC50 is over 5 µM.
For the molecule `Cc1cc([C@@H](C)Nc2ccc(Cl)nc2C(=O)O)c2nc(-c3ccc(F)cc3)n(C)c(=O)c2c1` [Compound 65], the AUC in “Pharmacokinetics in rats” (po, ig (intragastric), 3 mg/kg) is 3430 ng·h/mL; in “Pharmacokinetics in rats” (setting [3]) it was 1000 ng·h/mL; in data set [1] (setting [4]) it was 760 ng·h/mL; in data set [1] (setting [5]), 2370 ng·h/mL; in data set [1] (male, plasma, iv, 1 mg/kg) it was 954 ng·h/mL. Besides, the half-life in “Pharmacokinetics in rats” (po, ig (intragastric), 3 mg/kg) was 1.34 h; in the data set “Pharmacokinetics in rats” (setting [3]) it was 2.95 h; in data set [1] (setting [4]), 2.13 h; in data set [1] (setting [5]), 4.19 h; in data set [1] (male, plasma, iv, 1 mg/kg), 2.1 h. Further, the clearance in the data set “Pharmacokinetics in rats” (setting [3]) is 16.3 mL/min/kg; in data set [1] (male, plasma, iv, 1 mg/kg), 17.4 mL/min/kg. For the same molecule, the Vd in “Pharmacokinetics in rats” (setting [3]) is 1.71 L/kg; in data set [1] (male, plasma, iv, 1 mg/kg, read-out: VSS) it was 0.828 L/kg. Further, the F in the data set “Pharmacokinetics in rats” (ig (intragastric), 3 mg/kg) is 79.6%; in data set [1] (ig (intragastric), 3 mg/kg) it was 27.1%; in data set [1] (ig (intragastric), 10 mg/kg), 24.9%. Further, the values for the IC50 in the data set on MCF-10A cells and in the data set on T47D cells were over 5 µM and under 1 µM, respectively.
As to `C[C@@H](Nc1ccc(Cl)cc1C(=O)O)c1cc(F)cc2c(=O)n(C)c(-c3ccc(F)cn3)nc12` [Compound 80], the results for the IC50 (with MCF-10A cells; in the data set with T47D cells; in data set [2]) were over 5 µM, under 1 µM and under 1 µM, respectively.
Regarding `Cc1cc([C@@H](C)Nc2ccccc2S(N)(=O)=O)c2oc(-c3ccc(F)cc3F)cc(=O)c2c1` [Compound 27, (R)-2-((1-(2-(2,4-difluorophenyl)-6-methyl-4-oxo-4H-chromen-8-yl)ethyl)amino)benzenesulfonamide], the IC50 (in the data set with MCF-10A cells; in the data set on T47D cells; in data set [2]) was over 5 µM each time.
As for `Cc1cc([C@@H](C)Nc2ccc(Cl)nc2C(=O)O)c2nc(-c3ccc(F)cc3F)n(C)c(=O)c2c1` [Compound 44], the IC50 in the data set on MCF-10A cells is over 5 µM; with T47D cells, under 1 µM; in data set [2] it was under 1 µM.
Consider `Cc1cc([C@@H](C)Nc2ccccc2C(=O)O)c2oc(-c3ccc4c(c3)OC(F)(F)O4)cc(=O)c2c1` [Compound 43], for which the IC50 in the data set with MCF-10A cells is over 5 µM; with T47D cells it was under 1 µM; in data set [2], under 1 µM.
Turning to `Cc1cc([C@@H](C)Nc2cccc(F)c2C(=O)O)c2nc(-c3ccc(C(F)(F)F)cn3)n(C)c(=O)c2c1` [Compound 71], the IC50 in the data set with MCF-10A cells was over 5 µM; with T47D cells, over 5 µM; in data set [2], 1 to 5 µM.
